BigSolDB 2.1

SMILES: COc1ccc2[nH]cc(CCNC(C)=O)c2c1
- solubility (mole fraction) (in ethanol, 278.15 K): 0.00853
- solubility (mole fraction) (in ethanol, 283.15 K): 0.0113
- solubility (mole fraction) (in ethanol, 288.15 K): 0.0151
- solubility (mole fraction) (in ethanol, 293.15 K): 0.02
- solubility (mole fraction) (in ethanol, 298.15 K): 0.0254
- solubility (mole fraction) (in ethanol, 303.15 K): 0.032
- solubility (mole fraction) (in ethanol, 308.15 K): 0.0406
- solubility (mole fraction) (in ethanol, 313.15 K): 0.0527
- solubility (mole fraction) (in ethanol, 318.15 K): 0.0665
- solubility (mole fraction) (in ethanol, 323.15 K): 0.0844
- solubility (mole fraction) (in isobutanol, 278.15 K): 0.00406
- solubility (mole fraction) (in isobutanol, 283.15 K): 0.00538
- solubility (mole fraction) (in isobutanol, 288.15 K): 0.0073
- solubility (mole fraction) (in isobutanol, 293.15 K): 0.00972
- solubility (mole fraction) (in isobutanol, 298.15 K): 0.0127
- solubility (mole fraction) (in isobutanol, 303.15 K): 0.0167
- solubility (mole fraction) (in isobutanol, 308.15 K): 0.0212
- solubility (mole fraction) (in isobutanol, 313.15 K): 0.0276
- solubility (mole fraction) (in isobutanol, 318.15 K): 0.0352
- solubility (mole fraction) (in isobutanol, 323.15 K): 0.0441
- solubility (mole fraction) (in methanol, 278.15 K): 0.0116
- solubility (mole fraction) (in methanol, 283.15 K): 0.0158
- solubility (mole fraction) (in methanol, 288.15 K): 0.0211
- solubility (mole fraction) (in methanol, 293.15 K): 0.0282
- solubility (mole fraction) (in methanol, 298.15 K): 0.0357
- solubility (mole fraction) (in methanol, 303.15 K): 0.0462
- solubility (mole fraction) (in methanol, 308.15 K): 0.0594
- solubility (mole fraction) (in methanol, 313.15 K): 0.0757
- solubility (mole fraction) (in methanol, 318.15 K): 0.0963
- solubility (mole fraction) (in methanol, 323.15 K): 0.122
- solubility (mole fraction) (in methyl acetate, 278.15 K): 0.00303
- solubility (mole fraction) (in methyl acetate, 283.15 K): 0.00406
- solubility (mole fraction) (in methyl acetate, 288.15 K): 0.00531
- solubility (mole fraction) (in methyl acetate, 293.15 K): 0.00688
- solubility (mole fraction) (in methyl acetate, 298.15 K): 0.0085
- solubility (mole fraction) (in methyl acetate, 303.15 K): 0.0112
- solubility (mole fraction) (in methyl acetate, 308.15 K): 0.0144
- solubility (mole fraction) (in methyl acetate, 313.15 K): 0.0191
- solubility (mole fraction) (in methyl acetate, 318.15 K): 0.0244
- solubility (mole fraction) (in methyl acetate, 323.15 K): 0.0306
- solubility (mole fraction) (in n-butanol, 278.15 K): 0.00518
- solubility (mole fraction) (in n-butanol, 283.15 K): 0.00676
- solubility (mole fraction) (in n-butanol, 288.15 K): 0.009
- solubility (mole fraction) (in n-butanol, 293.15 K): 0.0118
- solubility (mole fraction) (in n-butanol, 298.15 K): 0.0152
- solubility (mole fraction) (in n-butanol, 303.15 K): 0.0199
- solubility (mole fraction) (in n-butanol, 308.15 K): 0.0257
- solubility (mole fraction) (in n-butanol, 313.15 K): 0.0328
- solubility (mole fraction) (in n-butanol, 318.15 K): 0.0425
- solubility (mole fraction) (in n-butanol, 323.15 K): 0.0536
- solubility (mole fraction) (in n-hexanol, 278.15 K): 0.0038
- solubility (mole fraction) (in n-hexanol, 283.15 K): 0.00497
- solubility (mole fraction) (in n-hexanol, 288.15 K): 0.00679
- solubility (mole fraction) (in n-hexanol, 293.15 K): 0.00872
- solubility (mole fraction) (in n-hexanol, 298.15 K): 0.0114
- solubility (mole fraction) (in n-hexanol, 303.15 K): 0.0146
- solubility (mole fraction) (in n-hexanol, 308.15 K): 0.019
- solubility (mole fraction) (in n-hexanol, 313.15 K): 0.0244
- solubility (mole fraction) (in n-hexanol, 318.15 K): 0.0308
- solubility (mole fraction) (in n-hexanol, 323.15 K): 0.0393
- solubility (mole fraction) (in n-pentanol, 278.15 K): 0.00515
- solubility (mole fraction) (in n-pentanol, 283.15 K): 0.00671
- solubility (mole fraction) (in n-pentanol, 288.15 K): 0.00889
- solubility (mole fraction) (in n-pentanol, 293.15 K): 0.0114
- solubility (mole fraction) (in n-pentanol, 298.15 K): 0.0145
- solubility (mole fraction) (in n-pentanol, 303.15 K): 0.0184
- solubility (mole fraction) (in n-pentanol, 308.15 K): 0.0233
- solubility (mole fraction) (in n-pentanol, 313.15 K): 0.0291
- solubility (mole fraction) (in n-pentanol, 318.15 K): 0.0365
- solubility (mole fraction) (in n-pentanol, 323.15 K): 0.0444
- solubility (mole fraction) (in n-propanol, 278.15 K): 0.00602
- solubility (mole fraction) (in n-propanol, 283.15 K): 0.00792
- solubility (mole fraction) (in n-propanol, 288.15 K): 0.0108
- solubility (mole fraction) (in n-propanol, 293.15 K): 0.0147
- solubility (mole fraction) (in n-propanol, 298.15 K): 0.0197
- solubility (mole fraction) (in n-propanol, 303.15 K): 0.0254
- solubility (mole fraction) (in n-propanol, 308.15 K): 0.0329
- solubility (mole fraction) (in n-propanol, 313.15 K): 0.0418
- solubility (mole fraction) (in n-propanol, 318.15 K): 0.0538
- solubility (mole fraction) (in n-propanol, 323.15 K): 0.0701
